{
  "source": "paper PMC10378394",
  "about": "(Current Issues in Molecular Biology, 2023)",
  "key": {"HUVECs": {"system": "HUVECs", "assay": "Tube formation assay", "format": "cell-based, human", "protocol": "Cell culture plates were coated with Matrigel at a concentration of 7 mg/mL and incubated at 37 °C for 45 min to allow gel formation. Human umbilical vein endothelial cells (HUVECs) were harvested using trypsin and resuspended in endothelial cell growth medium. Following a 5 h incubation period, the formation of endothelial cell tubes was assessed using an inverted photomicroscope (Nikon, Tokyo, Japan). Microphotographs were taken, and the quantification of tube formation, specifically tube length, was performed. To quantify tube formation, measurements were obtained using ImageJ. The long axis of each tube or single cell, as well as groups of adjacent cells, was measured."}, "[1]": {"assay": "Single oral dose, central nervous system", "format": "in vivo, ICR mice", "settings": "single oral dose 500 mg/kg"}, "TIE2": {"target": "TIE2 (Homo sapiens, UniProt Q02763)", "sequence (Q02763 23-1124)": "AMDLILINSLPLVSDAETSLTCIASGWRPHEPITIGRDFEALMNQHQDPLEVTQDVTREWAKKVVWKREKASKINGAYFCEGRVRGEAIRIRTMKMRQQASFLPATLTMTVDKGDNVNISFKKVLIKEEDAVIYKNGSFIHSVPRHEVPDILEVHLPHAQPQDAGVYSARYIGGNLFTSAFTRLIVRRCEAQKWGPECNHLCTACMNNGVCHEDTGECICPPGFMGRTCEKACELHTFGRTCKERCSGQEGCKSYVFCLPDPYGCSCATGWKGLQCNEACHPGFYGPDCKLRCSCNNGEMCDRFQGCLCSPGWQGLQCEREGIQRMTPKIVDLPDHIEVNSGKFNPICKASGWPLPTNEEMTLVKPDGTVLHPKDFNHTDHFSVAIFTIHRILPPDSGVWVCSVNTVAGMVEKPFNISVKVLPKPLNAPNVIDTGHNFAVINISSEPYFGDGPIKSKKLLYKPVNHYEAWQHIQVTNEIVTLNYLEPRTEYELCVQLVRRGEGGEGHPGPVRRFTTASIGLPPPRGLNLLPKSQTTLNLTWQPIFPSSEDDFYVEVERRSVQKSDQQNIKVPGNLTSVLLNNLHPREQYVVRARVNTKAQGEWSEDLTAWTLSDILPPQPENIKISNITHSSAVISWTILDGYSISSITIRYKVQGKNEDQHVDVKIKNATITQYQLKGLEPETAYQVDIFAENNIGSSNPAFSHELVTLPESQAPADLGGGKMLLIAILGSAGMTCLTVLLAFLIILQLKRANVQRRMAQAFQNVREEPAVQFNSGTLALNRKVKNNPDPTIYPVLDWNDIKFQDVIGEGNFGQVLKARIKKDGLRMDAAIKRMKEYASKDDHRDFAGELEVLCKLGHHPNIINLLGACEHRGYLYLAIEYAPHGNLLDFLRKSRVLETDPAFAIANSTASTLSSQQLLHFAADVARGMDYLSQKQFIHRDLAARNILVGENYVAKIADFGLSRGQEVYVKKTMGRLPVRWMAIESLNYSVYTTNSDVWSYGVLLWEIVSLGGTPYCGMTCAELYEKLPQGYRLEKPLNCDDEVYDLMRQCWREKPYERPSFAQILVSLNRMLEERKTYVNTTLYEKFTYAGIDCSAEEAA", "assay": "Eurofins kinase assay"}, "CRAF [2]": {"target": "T1, CRAF (Homo sapiens, UniProt P04049)", "T1 sequence (P04049 whole entry)": "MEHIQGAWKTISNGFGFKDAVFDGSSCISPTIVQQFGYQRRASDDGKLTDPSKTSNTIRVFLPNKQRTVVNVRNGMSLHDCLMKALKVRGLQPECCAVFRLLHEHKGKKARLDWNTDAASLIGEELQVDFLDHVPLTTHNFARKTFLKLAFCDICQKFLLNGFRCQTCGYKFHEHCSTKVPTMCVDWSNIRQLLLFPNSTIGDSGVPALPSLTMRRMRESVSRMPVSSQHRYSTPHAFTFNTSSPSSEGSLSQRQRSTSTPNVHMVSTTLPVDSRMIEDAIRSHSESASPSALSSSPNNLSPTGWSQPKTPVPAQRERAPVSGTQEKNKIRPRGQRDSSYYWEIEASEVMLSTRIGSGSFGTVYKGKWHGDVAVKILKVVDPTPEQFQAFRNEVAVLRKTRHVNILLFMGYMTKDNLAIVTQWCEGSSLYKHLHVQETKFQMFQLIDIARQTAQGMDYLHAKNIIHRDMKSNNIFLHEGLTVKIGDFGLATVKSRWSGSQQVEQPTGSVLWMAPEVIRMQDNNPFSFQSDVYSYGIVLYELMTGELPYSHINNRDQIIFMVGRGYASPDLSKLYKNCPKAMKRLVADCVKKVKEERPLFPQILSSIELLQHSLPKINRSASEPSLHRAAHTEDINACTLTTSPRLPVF", "assay": "Eurofins kinase assay"}, "cSRC(h)": {"target": "cSRC(h) (Homo sapiens, UniProt P12931)", "assay": "Eurofins kinase assay"}, "[3]": {"target": "PI3Kinase(p110a(E542K)/p85a)(m) (Mus musculus, UniProt P42337, E542K)", "assay": "Eurofins kinase assay"}, "PI3Kinase(p110a/p85a)(h)": {"target": "PI3Kinase(p110a/p85a)(h) (Homo sapiens, UniProt P42336)", "assay": "Eurofins kinase assay"}, "Met(h)": {"target": "Met(h) (Homo sapiens, UniProt P08581)", "sequence (P08581 25-1390)": "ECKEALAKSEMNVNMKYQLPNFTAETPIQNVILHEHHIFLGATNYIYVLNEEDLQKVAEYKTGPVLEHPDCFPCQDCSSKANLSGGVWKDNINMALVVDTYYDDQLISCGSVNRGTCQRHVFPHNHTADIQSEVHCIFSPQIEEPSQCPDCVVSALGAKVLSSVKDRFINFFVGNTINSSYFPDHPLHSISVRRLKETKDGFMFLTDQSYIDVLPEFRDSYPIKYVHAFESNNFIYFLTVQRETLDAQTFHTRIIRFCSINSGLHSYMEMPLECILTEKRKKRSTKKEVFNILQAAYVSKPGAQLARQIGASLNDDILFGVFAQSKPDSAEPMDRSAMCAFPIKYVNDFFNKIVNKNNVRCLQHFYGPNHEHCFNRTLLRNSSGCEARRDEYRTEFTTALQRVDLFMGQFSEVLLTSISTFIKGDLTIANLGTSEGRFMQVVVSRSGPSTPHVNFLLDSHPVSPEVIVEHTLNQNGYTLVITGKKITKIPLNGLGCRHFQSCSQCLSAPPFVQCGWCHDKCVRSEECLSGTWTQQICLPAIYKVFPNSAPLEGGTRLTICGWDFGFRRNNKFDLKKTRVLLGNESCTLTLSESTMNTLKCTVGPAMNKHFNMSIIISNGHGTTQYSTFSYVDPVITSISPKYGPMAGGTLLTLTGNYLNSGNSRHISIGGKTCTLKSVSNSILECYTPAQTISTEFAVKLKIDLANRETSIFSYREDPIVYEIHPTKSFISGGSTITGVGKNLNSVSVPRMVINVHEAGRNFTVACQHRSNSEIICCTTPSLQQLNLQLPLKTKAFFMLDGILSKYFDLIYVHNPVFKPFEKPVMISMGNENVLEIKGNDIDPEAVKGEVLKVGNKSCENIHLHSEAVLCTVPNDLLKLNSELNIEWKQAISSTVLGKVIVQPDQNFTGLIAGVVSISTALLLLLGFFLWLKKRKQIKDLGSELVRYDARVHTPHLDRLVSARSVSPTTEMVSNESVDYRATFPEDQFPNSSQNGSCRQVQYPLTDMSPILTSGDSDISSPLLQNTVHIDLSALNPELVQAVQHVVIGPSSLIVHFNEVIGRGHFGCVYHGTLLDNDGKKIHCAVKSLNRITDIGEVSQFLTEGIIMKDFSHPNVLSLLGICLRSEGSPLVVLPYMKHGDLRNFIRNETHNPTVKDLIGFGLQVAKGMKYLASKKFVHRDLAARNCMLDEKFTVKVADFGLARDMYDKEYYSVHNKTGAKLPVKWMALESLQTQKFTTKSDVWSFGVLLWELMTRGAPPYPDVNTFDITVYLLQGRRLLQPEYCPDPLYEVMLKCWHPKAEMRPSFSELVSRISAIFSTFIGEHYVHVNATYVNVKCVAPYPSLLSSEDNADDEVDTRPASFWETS", "assay": "Eurofins kinase assay"}, "PDGFRβ(h)": {"target": "PDGFRβ(h) (Homo sapiens, UniProt P09619)", "assay": "Eurofins kinase assay"}, "MST2(h)": {"target": "MST2(h) (Homo sapiens, UniProt Q13188)", "assay": "Eurofins kinase assay"}, "p70S6K(h)": {"target": "p70S6K(h) (Homo sapiens, UniProt P23443)", "assay": "Eurofins kinase assay"}, "PKCθ(h)": {"target": "PKCθ(h) (Homo sapiens, UniProt Q04759)", "assay": "Eurofins kinase assay"}, "Rsk3(h)": {"target": "Rsk3(h) (Homo sapiens, UniProt Q15349)", "assay": "Eurofins kinase assay"}, "Aurora-A(h)": {"target": "Aurora-A(h) (Homo sapiens, UniProt O14965)", "assay": "Eurofins kinase assay"}, "PKBγ(h)": {"target": "PKBγ(h) (Homo sapiens, UniProt Q9Y243)", "assay": "Eurofins kinase assay"}, "MEK1(h)": {"target": "MEK1(h) (Homo sapiens, UniProt Q02750)", "sequence (Q02750 whole entry)": "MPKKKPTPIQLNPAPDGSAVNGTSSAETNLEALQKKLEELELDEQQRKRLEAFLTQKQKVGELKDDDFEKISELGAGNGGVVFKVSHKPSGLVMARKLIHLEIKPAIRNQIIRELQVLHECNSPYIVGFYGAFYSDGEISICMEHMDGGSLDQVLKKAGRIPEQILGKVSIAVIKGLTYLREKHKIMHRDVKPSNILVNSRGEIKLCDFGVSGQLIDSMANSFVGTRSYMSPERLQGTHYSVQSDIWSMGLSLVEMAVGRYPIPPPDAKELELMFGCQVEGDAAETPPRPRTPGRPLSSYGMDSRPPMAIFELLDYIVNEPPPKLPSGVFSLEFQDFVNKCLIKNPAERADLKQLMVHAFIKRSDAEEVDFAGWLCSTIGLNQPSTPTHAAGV", "assay": "Eurofins kinase assay"}, "PDK1(h)": {"target": "PDK1(h) (Homo sapiens, UniProt O15530)", "assay": "Eurofins kinase assay"}, "MAPK1(h)": {"target": "MAPK1(h) (Homo sapiens, UniProt P27361)", "sequence (P27361 whole entry)": "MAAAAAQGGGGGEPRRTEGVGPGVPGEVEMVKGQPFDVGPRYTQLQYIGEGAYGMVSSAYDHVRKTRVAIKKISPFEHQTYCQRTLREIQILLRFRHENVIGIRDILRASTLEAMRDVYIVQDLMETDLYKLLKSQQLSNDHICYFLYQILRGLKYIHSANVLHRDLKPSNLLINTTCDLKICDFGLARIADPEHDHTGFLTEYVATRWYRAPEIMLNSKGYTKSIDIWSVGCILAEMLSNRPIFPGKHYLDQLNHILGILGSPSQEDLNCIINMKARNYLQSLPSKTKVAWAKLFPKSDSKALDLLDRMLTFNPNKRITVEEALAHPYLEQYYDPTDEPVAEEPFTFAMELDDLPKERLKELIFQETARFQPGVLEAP", "assay": "Eurofins kinase assay"}, "CaMKIIβ(h)": {"target": "CaMKIIβ(h) (Homo sapiens, UniProt Q13554)", "assay": "Eurofins kinase assay"}, "CDK6/cyclinD3(h)": {"target": "CDK6/cyclinD3(h) (Homo sapiens, UniProt Q00534)", "assay": "Eurofins kinase assay"}, "GSK3β(h)": {"target": "GSK3β(h) (Homo sapiens, UniProt P49841)", "assay": "Eurofins kinase assay"}, "MAPK2(h)": {"target": "MAPK2(h) (Homo sapiens, UniProt P28482)", "sequence (P28482 whole entry)": "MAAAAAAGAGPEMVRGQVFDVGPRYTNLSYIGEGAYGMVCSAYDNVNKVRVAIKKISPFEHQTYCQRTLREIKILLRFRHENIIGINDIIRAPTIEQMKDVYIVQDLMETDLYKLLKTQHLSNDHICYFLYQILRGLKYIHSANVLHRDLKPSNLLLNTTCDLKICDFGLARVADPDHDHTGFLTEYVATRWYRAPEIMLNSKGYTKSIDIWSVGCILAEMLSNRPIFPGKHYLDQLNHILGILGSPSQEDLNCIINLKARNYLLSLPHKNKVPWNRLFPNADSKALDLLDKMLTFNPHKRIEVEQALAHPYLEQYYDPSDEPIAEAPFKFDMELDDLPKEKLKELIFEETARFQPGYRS", "assay": "Eurofins kinase assay"}, "PDGFRα(h)": {"target": "PDGFRα(h) (Homo sapiens, UniProt P16234)", "assay": "Eurofins kinase assay"}, "Ros(h)": {"target": "Ros(h) (Homo sapiens, UniProt P08922)", "assay": "Eurofins kinase assay"}, "PKCδ(h)": {"target": "PKCδ(h) (Homo sapiens, UniProt Q05655)", "sequence (Q05655 whole entry)": "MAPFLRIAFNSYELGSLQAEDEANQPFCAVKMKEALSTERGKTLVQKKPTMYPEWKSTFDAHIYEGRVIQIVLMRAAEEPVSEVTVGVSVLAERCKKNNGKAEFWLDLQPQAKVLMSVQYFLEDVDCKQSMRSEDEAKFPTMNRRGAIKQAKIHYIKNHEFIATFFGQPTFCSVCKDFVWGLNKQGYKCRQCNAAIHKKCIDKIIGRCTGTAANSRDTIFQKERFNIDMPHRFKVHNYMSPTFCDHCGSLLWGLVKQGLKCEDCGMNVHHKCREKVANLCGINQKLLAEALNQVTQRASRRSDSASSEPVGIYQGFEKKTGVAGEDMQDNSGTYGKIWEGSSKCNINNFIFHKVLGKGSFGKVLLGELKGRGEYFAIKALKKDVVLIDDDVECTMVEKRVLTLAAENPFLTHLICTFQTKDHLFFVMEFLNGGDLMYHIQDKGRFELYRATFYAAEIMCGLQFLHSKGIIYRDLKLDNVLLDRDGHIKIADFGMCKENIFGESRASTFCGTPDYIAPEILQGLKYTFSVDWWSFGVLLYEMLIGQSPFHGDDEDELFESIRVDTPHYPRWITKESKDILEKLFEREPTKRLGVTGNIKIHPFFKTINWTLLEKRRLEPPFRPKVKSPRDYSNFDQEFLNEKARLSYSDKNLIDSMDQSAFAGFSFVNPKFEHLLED", "assay": "Eurofins kinase assay"}, "SGK(h)": {"target": "SGK(h) (Homo sapiens, UniProt O00141)", "assay": "Eurofins kinase assay"}, "CRAF [4]": {"target": "T1, CRAF", "assay": "KiNativ cell-based kinase assay in HCT116", "design": "purchased Eurofins (Poitiers, France)", "protocol": "Kinase selectivity profiling in cells was carried out using the KiNativ assay developed by ActivX Biosciences (La Jolla, CA, USA). HCT 116 cells were utilized for the experiment. […] Following the treatment, the cells were lysed, and the lysates were processed for further analysis. Probe labeling was performed using the lysates, and the labeled samples were subjected to LC/MS-MS (Liquid Chromatography/Mass Spectrometry) analysis."}, "[5]": {"system": "KRAS and BRAF mutant cancer cells (HCT116, LS513, SW620, HT29)", "assay": "Cell growth assay, panel of cell lines", "settings": "read-out: IC50 values, cell growth", "procedure": "To assess cell viability, the CellTiter-Glo Luminescent Cell Viability Assay Reagent (Promega, Fitchburg, WI, USA) was added to each well. The assay measured ATP levels as an indicator of cell viability. All data points were normalized to the control samples treated with dimethyl sulfoxide when determining IC50 values. Statistical calculations and data analysis, including IC50 determination, were performed using GraphPad Prism software."}},
  "data": [
    {"smiles": "O=C(Nc1cc(Nc2ncccc2-c2ncnc3[nH]cnc23)ccc1F)c1cc(C(F)(F)F)cc(C(F)(F)F)c1", "note": "[SJ-C1044, N-(5-(3-(9H-purin-6-yl)pyridin-2-ylamino)-2-fluorophenyl)-3,5-bis(trifluoromethyl)benzamide]", "values": [
      {"measurement": "VEGF-stimulated endothelial tube formation", "setting": "HUVECs", "value": "strong activity"},
      {"measurement": "VEGF-induced tube formation, compared to LY3009120", "setting": "HUVECs; 10 μM, 10 nmol/L VEGF", "value": "more effectively blocked"},
      {"measurement": "central nervous system changes", "setting": "[1]", "value": "did not result in any abnormal changes"},
      {"measurement": "IC50", "setting": "TIE2", "value": 23, "unit": "nM"},
      {"measurement": "inhibition at 10 µM", "setting": "TIE2", "value": 97, "unit": "%"},
      {"measurement": "inhibition at 10 µM", "setting": "CRAF [2]", "value": 86, "unit": "%"},
      {"measurement": "inhibition at 10 µM", "setting": "cSRC(h)", "value": 38, "unit": "%"},
      {"measurement": "inhibition at 10 µM", "setting": "[3]", "value": 24, "unit": "%"},
      {"measurement": "inhibition at 10 µM", "setting": "PI3Kinase(p110a/p85a)(h)", "value": 23, "unit": "%"},
      {"measurement": "inhibition at 10 µM", "setting": "Met(h)", "value": 13, "unit": "%"},
      {"measurement": "inhibition at 10 µM", "setting": "PDGFRβ(h)", "value": 11, "unit": "%"},
      {"measurement": "inhibition at 10 µM", "setting": "MST2(h)", "value": 9, "unit": "%"},
      {"measurement": "inhibition at 10 µM", "setting": "p70S6K(h)", "value": 8, "unit": "%"},
      {"measurement": "inhibition at 10 µM", "setting": "PKCθ(h)", "value": 5, "unit": "%"},
      {"measurement": "inhibition at 10 µM", "setting": "Rsk3(h)", "value": 4, "unit": "%"},
      {"measurement": "inhibition at 10 µM", "setting": "Aurora-A(h)", "value": 3, "unit": "%"},
      {"measurement": "inhibition at 10 µM", "setting": "PKBγ(h)", "value": 2, "unit": "%"},
      {"measurement": "inhibition at 10 µM", "setting": "MEK1(h)", "value": 1, "unit": "%"},
      {"measurement": "inhibition at 10 µM", "setting": "PDK1(h)", "value": 0, "unit": "%"},
      {"measurement": "inhibition at 10 µM", "setting": "MAPK1(h)", "value": -3, "unit": "%"},
      {"measurement": "inhibition at 10 µM", "setting": "CaMKIIβ(h)", "value": -5, "unit": "%"},
      {"measurement": "inhibition at 10 µM", "setting": "CDK6/cyclinD3(h)", "value": -5, "unit": "%"},
      {"measurement": "inhibition at 10 µM", "setting": "GSK3β(h)", "value": -5, "unit": "%"},
      {"measurement": "inhibition at 10 µM", "setting": "MAPK2(h)", "value": -7, "unit": "%"},
      {"measurement": "inhibition at 10 µM", "setting": "PDGFRα(h)", "value": -10, "unit": "%"},
      {"measurement": "inhibition at 10 µM", "setting": "Ros(h)", "value": -12, "unit": "%"},
      {"measurement": "inhibition at 10 µM", "setting": "PKCδ(h)", "value": -14, "unit": "%"},
      {"measurement": "inhibition at 10 µM", "setting": "SGK(h)", "value": -34, "unit": "%"},
      {"measurement": "EC50", "setting": "CRAF [4]; HCT116, full-length protein, read-out: Binding Affinities in HCT116 (EC50)", "value": 1400, "unit": "nM"},
      {"measurement": "inhibition at 10 µM", "setting": "CRAF [4]; HCT 116 cells, 2 h, 10 µM, read-out: inhibition of probe binding", "value": 83, "unit": "%"},
      {"measurement": "IC50", "setting": "[5]", "value": "160 to 628", "unit": "nM"}
    ]}
  ]
}
